Source: US6380185B1, “N-substituted benzoyl indoles as estrogenic agents” (American Home Products Corporation, priority 1999, dated 2002)

Assays:
estrogen receptor = molecular target: T1, estrogen receptor (Homo sapiens, UniProt P03372); experiment: Transfection Assay; type: cell-based
T1 sequence (P03372 1-595): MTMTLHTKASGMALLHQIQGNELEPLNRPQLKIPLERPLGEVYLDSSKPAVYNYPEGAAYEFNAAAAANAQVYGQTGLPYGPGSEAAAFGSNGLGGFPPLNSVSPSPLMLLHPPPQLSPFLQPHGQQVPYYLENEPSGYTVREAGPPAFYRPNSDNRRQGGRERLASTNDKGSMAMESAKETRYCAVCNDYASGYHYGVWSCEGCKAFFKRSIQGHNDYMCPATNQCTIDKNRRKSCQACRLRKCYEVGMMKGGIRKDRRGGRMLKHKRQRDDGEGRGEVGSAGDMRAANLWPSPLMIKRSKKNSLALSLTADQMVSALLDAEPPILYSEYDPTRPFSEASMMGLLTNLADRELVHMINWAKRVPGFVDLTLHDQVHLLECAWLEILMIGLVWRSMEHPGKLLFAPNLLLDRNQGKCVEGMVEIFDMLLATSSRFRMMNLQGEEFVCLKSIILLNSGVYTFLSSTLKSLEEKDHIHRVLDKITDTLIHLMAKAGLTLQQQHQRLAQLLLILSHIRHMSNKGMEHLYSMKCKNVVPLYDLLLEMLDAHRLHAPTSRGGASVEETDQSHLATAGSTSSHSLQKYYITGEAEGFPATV

estrogen receptor (ER) = molecular target: T2, estrogen receptor (ER) (Homo sapiens, UniProt P03372); experiment: Estrogen Receptor Binding/Competition Assay ([3H]17β-estradiol displacement)
T2 construct: expressed in transfected cells; host or cells: CHO cells (ribosome-free cytosol)
T2 sequence (P03372 1-595): T1 sequence (P03372 1-595)

| melting point [°C] | Transfection Assay % Control (estrogen receptor; Concentration 1 × 10^−6 M + 1 nM estradiol) [%] | Transfection Assay % Control (estrogen receptor; Concentration 1 × 10^−6 M, compound alone) [%] | IC50 (estrogen receptor (ER)) [µM] | Compound |
| --- | --- | --- | --- | --- |
| 127 to 130 | 13 | 0 | 0.2 | Cc1c(-c2ccc(O)cc2)n(C(=O)c2ccc(OCCN3CCCCC3)cc2)c2ccc(O)cc12 [Example No. 2, [5-Hydroxy-2-(4-hydroxy-phenyl)-3-methyl-indol-1-yl][4-(2-piperidin-1-yl-ethoxy)-phenyl]-methanone] |
| 48 to 51 | – | – | – | Cc1c(-c2ccc(OCc3ccccc3)cc2)n(C(=O)c2ccc(OCCN3CCCCC3)cc2)c2ccc(OCc3ccccc3)cc12 [compound 1, [5-Benzyloxy-2-(4-benzyloxy-phenyl)-3-methyl-indol-1-yl]-[4-(2-piperidin-1-yl-ethoxy)-phenyl]-methanone] |
